HELM strings list units from the 5' end as sugar, base in round brackets, then linkage (d deoxyribose, r ribose, m 2'-O-methyl, p phosphodiester). Strings are as the collection lists them, not checked against the first reports. ss, as = sense and antisense strand; [lna] = locked nucleic acid (LNA); [hna] = hexitol nucleic acid; [fl2r] = 2'-fluoro
Further: test system not given here.

For the data set the following is noted: siRNA.
In the case of “RNA1{r(G)p.r(A)p.r(A)p.r(G)p.r(G)p.r(G)p.r(G)p.r(A)p.r(A)p.r(A)p.r(U)p.r(C)p.m(U)p.m(G)p.m(U)p.m(G)p.r(G)p.r(U)p.r(U)p.r(T)p.r(T)}|RNA2{r(A)p.r(A)p.r(C)p.m(C)p.m(A)p.m(C)p.m(A)p.r(G)p.r(A)p.r(U)p.r(U)p.r(U)p.r(C)p.r(C)p.r(C)p.r(C)p.r(U)p.r(U)p.r(C)p.r(T)p.r(T)}$$$RNA1{StrandType:ss}|RNA2{StrandType:as}$”, the target mRNA knockdown was determined as 61%.

Take “RNA1{r(G)p.r(A)p.r(C)p.[fl2r](C)p.r(A)p.r(C)p.r(G)p.r(A)p.r(A)p.r(G)p.r(A)p.r(G)p.r(U)p.[fl2r](U)p.r(A)p.r(A)p.r(C)p.r(C)p.r(C)p.r(T)p.r(T)}|RNA2{r(G)p.r(G)p.r(G)p.r(U)p.[fl2r](U)p.r(A)p.r(A)p.r(C)p.r(U)p.r(C)p.r(U)p.r(U)p.r(C)p.r(G)p.[fl2r](U)p.r(G)p.r(G)p.r(U)p.r(C)p.r(T)p.r(T)}$$$RNA1{StrandType:ss}|RNA2{StrandType:as}$”: the target mRNA knockdown amounted to 85%.

Turning to “RNA1{r(G)p.r(A)p.r(C)p.r(A)p.r(A)p.r(G)p.r(G)p.r(G)p.r(A)p.r(A)p.r(G)p.r(G)p.r(U)p.m(U)p.r(A)p.r(G)p.r(C)p.r(C)p.r(U)p.r(T)p.r(T)}|RNA2{r(A)p.r(G)p.r(G)p.r(C)p.m(U)p.r(A)p.r(A)p.r(C)p.r(C)p.r(U)p.r(U)p.r(C)p.r(C)p.r(C)p.r(U)p.r(U)p.r(G)p.r(U)p.r(C)p.r(T)p.r(T)}$$$RNA1{StrandType:ss}|RNA2{StrandType:as}$”, the target mRNA knockdown amounted to 72%.

In turn, “RNA1{r(G)p.r(A)p.r(C)p.r(C)p.r(A)p.r(C)p.r(G)p.r(A)p.r(A)p.r(G)p.r(A)p.r(G)p.r(U)p.[fl2r](U)p.r(A)p.r(A)p.r(C)p.r(C)p.r(C)p.r(T)p.r(T)}|RNA2{r(G)p.r(G)p.r(G)p.r(U)p.[fl2r](U)p.r(A)p.r(A)p.r(C)p.r(U)p.r(C)p.r(U)p.r(U)p.r(C)p.r(G)p.r(U)p.r(G)p.r(G)p.r(U)p.r(C)p.r(T)p.r(T)}$$$RNA1{StrandType:ss}|RNA2{StrandType:as}$” had a target mRNA knockdown of 82%.

“RNA1{r(G)p.r(A)p.r(C)p.r(G)p.[hna](U)p.r(A)p.r(A)p.[hna](A)p.r(C)p.r(G)p.[hna](G)p.r(C)p.r(C)p.[hna](A)p.r(C)p.r(A)p.r(A)p.r(G)p.[hna](U)p.[hna](U)p.d(T)}|RNA2{[fl2r](A)p.m(C)p.[fl2r](U)p.m(U)p.[fl2r](G)p.m(U)p.[fl2r](G)p.m(G)p.[fl2r](C)p.m(C)p.[fl2r](G)p.m(U)p.[fl2r](U)p.m(U)p.[fl2r](A)p.m(C)p.[fl2r](G)p.m(U)p.[fl2r](C)p.m(G)p.[fl2r](C)}$$$RNA1{StrandType:ss}|RNA2{StrandType:as}$” gave a target mRNA knockdown of 23.3%.

“RNA1{r(G)p.r(A)p.r(C)p.r(G)p.[hna](U)p.r(A)p.r(A)p.[hna](A)p.r(C)p.r(G)p.[hna](G)p.r(C)p.r(C)p.[hna](A)p.r(C)p.r(A)p.r(A)p.r(G)p.[hna](U)p.[hna](U)p.d(T)}|RNA2{r(A)p.[hna](C)p.r(U)p.r(U)p.r(G)p.r(U)p.r(G)p.r(G)p.r(C)p.r(C)p.r(G)p.r(U)p.r(U)p.r(U)p.r(A)p.r(C)p.r(G)p.[hna](U)p.[hna](C)p.[hna](G)p.d(T)}$$$RNA1{StrandType:ss}|RNA2{StrandType:as}$” showed a target mRNA knockdown of 23.2%.

In the case of “RNA1{r(G)p.r(A)p.r(C)p.r(G)p.[hna](U)p.r(A)p.r(A)p.[hna](A)p.r(C)p.r(G)p.[hna](G)p.r(C)p.r(C)p.[hna](A)p.r(C)p.r(A)p.r(A)p.r(G)p.[hna](U)p.[hna](U)p.d(T)}|RNA2{r(A)p.m(C)p.r(U)p.r(U)p.r(G)p.r(U)p.r(G)p.r(G)p.r(C)p.r(C)p.r(G)p.r(U)p.r(U)p.r(U)p.r(A)p.r(C)p.r(G)p.r(U)p.r(C)p.r(G)p.r(C)}$$$RNA1{StrandType:ss}|RNA2{StrandType:as}$”, the target mRNA knockdown came to 44.7%.

In turn, “RNA1{r(G)p.r(A)p.r(C)p.r(G)p.[hna](U)p.r(A)p.r(A)p.[hna](A)p.r(C)p.r(G)p.[hna](G)p.r(C)p.r(C)p.[hna](A)p.r(C)p.r(A)p.r(A)p.r(G)p.[hna](U)p.[hna](U)p.d(T)}|RNA2{r(A)p.r(C)p.[hna](U)p.r(U)p.r(G)p.r(U)p.r(G)p.r(G)p.r(C)p.r(C)p.r(G)p.r(U)p.r(U)p.r(U)p.r(A)p.r(C)p.r(G)p.[hna](U)p.[hna](C)p.[hna](G)p.d(T)}$$$RNA1{StrandType:ss}|RNA2{StrandType:as}$” showed a target mRNA knockdown of 51.4%.

Substance “RNA1{r(G)p.r(A)p.r(C)p.r(G)p.[hna](U)p.r(A)p.r(A)p.[hna](A)p.r(C)p.r(G)p.[hna](G)p.r(C)p.r(C)p.[hna](A)p.r(C)p.r(A)p.r(A)p.r(G)p.[hna](U)p.[hna](U)p.d(T)}|RNA2{r(A)p.r(C)p.r(U)p.r(U)p.r(G)p.r(U)p.r(G)p.r(G)p.r(C)p.r(C)p.r(G)p.r(U)p.r(U)p.r(U)p.r(A)p.r(C)p.r(G)p.[hna](U)p.[hna](C)p.[hna](G)p.d(T)}$$$RNA1{StrandType:ss}|RNA2{StrandType:as}$” registered a target mRNA knockdown of 74.2%.

Substance “RNA1{r(G)p.r(A)p.r(C)p.r(G)p.[hna](U)p.r(A)p.r(A)p.[hna](A)p.r(C)p.r(G)p.[hna](G)p.r(C)p.r(C)p.[hna](A)p.r(C)p.r(A)p.r(A)p.r(G)p.[hna](U)p.[hna](U)p.d(T)}|RNA2{r(A)p.r(C)p.r(U)p.r(U)p.r(G)p.r(U)p.r(G)p.r(G)p.r(C)p.r(C)p.r(G)p.r(U)p.r(U)p.r(U)p.r(A)p.r(C)p.r(G)p.r(U)p.r(C)p.r(G)p.r(C)}$$$RNA1{StrandType:ss}|RNA2{StrandType:as}$” had a target mRNA knockdown of 87.4%.

For the substance “RNA1{r(G)p.r(A)p.r(C)p.r(G)p.[hna](U)p.r(A)p.r(A)p.[hna](A)p.r(C)p.r(G)p.[hna](G)p.r(C)p.r(C)p.[hna](A)p.r(C)p.r(A)p.r(A)p.r(G)p.[hna](U)p.r(U)p.d(T)}|RNA2{r(A)p.[hna](C)p.r(U)p.r(U)p.r(G)p.r(U)p.r(G)p.r(G)p.[hna](C)p.r(C)p.r(G)p.r(U)p.r(U)p.r(U)p.r(A)p.r(C)p.r(G)p.[hna](U)p.[hna](C)p.[hna](G)p.d(T)}$$$RNA1{StrandType:ss}|RNA2{StrandType:as}$”, the target mRNA knockdown was 0%.

In the case of “RNA1{r(G)p.r(A)p.r(C)p.r(G)p.[hna](U)p.r(A)p.r(A)p.[hna](A)p.r(C)p.r(G)p.[hna](G)p.r(C)p.r(C)p.[hna](A)p.r(C)p.r(A)p.r(A)p.r(G)p.[hna](U)p.r(U)p.d(T)}|RNA2{r(A)p.r(C)p.[lna](T)p.r(U)p.r(G)p.[lna](T)p.r(G)p.r(G)p.r(C)p.r(C)p.r(G)p.r(U)p.r(U)p.[lna](T)p.r(A)p.r(C)p.r(G)p.[lna](T)p.r(C)p.[lna](G)p.[lna](C)}$$$RNA1{StrandType:ss}|RNA2{StrandType:as}$”, the target mRNA knockdown amounted to 7.9%.

With “RNA1{r(G)p.r(A)p.r(C)p.r(G)p.[hna](U)p.r(A)p.r(A)p.[hna](A)p.r(C)p.r(G)p.[hna](G)p.r(C)p.r(C)p.[hna](A)p.r(C)p.r(A)p.r(A)p.r(G)p.[hna](U)p.r(U)p.d(T)}|RNA2{r(A)p.r(C)p.r(U)p.r(U)p.r(G)p.r(U)p.r(G)p.r(G)p.r(C)p.r(C)p.r(G)p.r(U)p.r(U)p.r(U)p.r(A)p.r(C)p.r(G)p.r(U)p.[lna](C)p.[lna](G)p.r(C)}$$$RNA1{StrandType:ss}|RNA2{StrandType:as}$”, the target mRNA knockdown turned out to be 83.9%.
